What was measured:
HIV (LAV 1) = assay: microbe, parasite or virus in culture; details: for Viable cell count / Viral antigen-positive cell percentage: 4-day addition
Description: (§1) Human T cell-derived, T4 antigen-positive CEM cells (provided by the Institut Pasteur, France) were used as host cells of HIV. Cell culture was carried out in a carbon dioxide-containing atmosphere in an incubator maintained at 37°C according to a conventional method [cf. […] The culture supernatant (5×10⁶ TCID₅₀/ml) obtained by subjecting CEM cells to HIV (LAV 1) infection and stored at -70°C was used as the HIV source.
The medium for cell culture (10 ml) placed in a plastic culture flask (25 cm²) was inoculated with CEM cells at a cell density of 2.5×10⁵ cells/ml. After 3 days of incubation, the culture was transferred to a 15-ml centrifuge tube and subjected to centrifugation at 1,000 revolutions per minute for 5 minutes for sedimentation of cells and removal of the culture medium.
The stock viral suspension was added to the host cells thus prepared to an MOI of 0.05 and the mixture was maintained at 37°C for 90 minutes with stirring at 30-minute intervals for viral adsorption. The medium was added to HIV-infected cells to a cell density of 5.0×10⁵ cells/ml to give an HIV-infected cell suspension.
A mixture (1.0 ml) of the three constituents mentioned below was added to each well of a 24-well plastic culture plate and the test substance final concentration was adjusted to 10 mcg/ml, 5 mcg/ml, 2.5 mcg/ml or 1 mcg/ml. The "no addition" wells (0 mcg/ml) served as controls.
After 4 days of incubation following viral infection, the cells in each well on the 24-well culture plate were suspended uniformly by pipetting and a 0.5-ml portion of the suspension was separated. A 2.0-ml portion of test substance-free fresh medium was added to the remaining 0.5-ml portion of the cell suspension, followed by incubation.
Seven days after viral infection, pipetting was performed to give a uniform cell suspension in each well and a 0.5-ml portion of the suspension was separated.
Incubation was continued and, 10 days after viral infection, a uniform cell suspension was produced in the same manner in each well and a 1.5-ml portion thereof was separated. A fresh 2.0-ml portion of the medium free of (or containing) the test substance was added to the well, followed by further incubation.
Fifteen days after viral infection, the cells in each well were suspended uniformly in the same manner in the medium and a 2.0-ml portion of the suspension was separated. A fresh 2.0-ml portion of the medium free of (or containing) the test substance was added to the remaining 0.5 ml of the cell suspension and incubation was continued.
Medium exchange was performed in the same manner 20 days and 25 days after viral infection.
The cell suspensions collected 4 days, 7 days, 10 days, 20 days and 30 days after viral infection were tested for viable cell count and viable cell percentage by trypan blue staining. At the same time, viral antigen-positive cell percentage determination was carried out by immunofluorescence using an anti-HIV antiserum isolated from a healthy carrier of HIV.
The numerical values given each is the mean for the respective two wells on the culture plate. The viable cell count is the total cell count minus the count of dead cells stained with trypan blue. The viable cell percentage is the percentage of viable cells among all the cells including dead cells. The viral antigen-positive cell percentage is the percentage of cells indicating antigen expression as found among all the cells including dead cells.

CEM cells = assay: Cytotoxicity in uninfected CEM cells (trypan blue staining); details: at concentrations not exceeding 10 mcg/ml
Description: as §1
The cell culture medium (10 ml) placed in a plastic culture flask (25 cm²) was inoculated with CEM cells to a cell density of 2.5×10⁵ cells/ml and incubation was performed for 3 days. Then, the culture was transferred to a 15-ml plastic centrifuge tube and centrifuged at 1,000 revolutions per minute for 5 minutes for medium removal. A fresh portion of the medium was added to the cells, the cell density being adjusted to 5.0×10⁵ cells/ml. The following mixture (1.0 ml) containing the cell suspension prepared in the above manner was incubated in a 24-well plastic culture plate for 4 days:
The cells in each well were then suspended uniformly in the medium by pipetting and a 0.5-ml portion of the suspension was separated.
A fresh 2-ml portion of the test substance-free medium was added to the remaining cell suspension (0.5 ml) and, after a further 3-day incubation, a cell suspension was produced in the same manner and a 0.5-ml portion thereof was removed.
The cell suspensions collected in the above manner were subjected to viable cell count and viable cell percentage determinations by trypan blue staining.

in vivo = details: mouse, po
[1] = Human immunodeficiency virus 1, CCRF-CEM, 96 h, read-out: Viable cell percentage

In the case of `Cl.O.O=C(O)c1cn(C2CC2)c2cc(N3CCNCC3)c(F)cc2c1=O` [CPFX, 1-cyclopropyl-6-fluoro-1,4-dihydro-4-oxo-7-(1-piperazinyl)-3-quinoline carboxylic acid hydrochloride hydrate], the Viable cell count (HIV (LAV 1); 1 mcg/ml, after 4 days) is reported as 220 × 10⁴ cells/ml, the “Viral antigen-positive cell percentage” value (HIV (LAV 1); 1 mcg/ml, after 4 days) is reported as 83% and the Viable cell count (HIV (LAV 1); 1 mcg/ml, after 7 days) is reported as 86 × 10⁴ cells/ml. The “Viral antigen-positive cell percentage” value (HIV (LAV 1); 1 mcg/ml, after 7 days) was 62%, the Viable cell count (HIV (LAV 1); 1 mcg/ml, after 10 days) was 52 × 10⁴ cells/ml and the “Viral antigen-positive cell percentage” value (HIV (LAV 1); 1 mcg/ml, after 10 days) was 37%. The Viable cell count (HIV (LAV 1); 1 mcg/ml, after 20 days) was 8 × 10⁴ cells/ml, the “Viral antigen-positive cell percentage” value (HIV (LAV 1); 1 mcg/ml, after 20 days) was 33% and the Viable cell count (HIV (LAV 1); 1 mcg/ml, after 30 days) was 33 × 10⁴ cells/ml. For the same compound, the Viable cell count (HIV (LAV 1); 2.5 mcg/ml, after 4 days) was 200 × 10⁴ cells/ml, the “Viral antigen-positive cell percentage” value (HIV (LAV 1); 2.5 mcg/ml, after 4 days) was 87% and the Viable cell count (HIV (LAV 1); 2.5 mcg/ml, after 7 days) was 98 × 10⁴ cells/ml. For the same compound, the “Viral antigen-positive cell percentage” value (HIV (LAV 1); 2.5 mcg/ml, after 7 days) was 60%, the Viable cell count (HIV (LAV 1); 2.5 mcg/ml, after 10 days) was 320 × 10⁴ cells/ml and the “Viral antigen-positive cell percentage” value (HIV (LAV 1); 2.5 mcg/ml, after 10 days) was 31%. The Viable cell count (HIV (LAV 1); 2.5 mcg/ml, after 20 days) was 220 × 10⁴ cells/ml, the “Viral antigen-positive cell percentage” value (HIV (LAV 1); 2.5 mcg/ml, after 20 days) was 3% and the Viable cell count (HIV (LAV 1); 2.5 mcg/ml, after 30 days) was 360 × 10⁴ cells/ml. The “Viral antigen-positive cell percentage” value (HIV (LAV 1); 2.5 mcg/ml, after 30 days) was “≦1%”, the Viable cell count (HIV (LAV 1); 5 mcg/ml, after 4 days) was 220 × 10⁴ cells/ml and the “Viral antigen-positive cell percentage” value (HIV (LAV 1); 5 mcg/ml, after 4 days) was 92%. The Viable cell count (HIV (LAV 1); 5 mcg/ml, after 7 days) was 76 × 10⁴ cells/ml, the “Viral antigen-positive cell percentage” value (HIV (LAV 1); 5 mcg/ml, after 7 days) was 67% and the Viable cell count (HIV (LAV 1); 5 mcg/ml, after 10 days) was 310 × 10⁴ cells/ml. For the same compound, the “Viral antigen-positive cell percentage” value (HIV (LAV 1); 5 mcg/ml, after 10 days) was 29%, the Viable cell count (HIV (LAV 1); 5 mcg/ml, after 20 days) was 280 × 10⁴ cells/ml and the “Viral antigen-positive cell percentage” value (HIV (LAV 1); 5 mcg/ml, after 20 days) was 4%. For the same compound, the Viable cell count (HIV (LAV 1); 5 mcg/ml, after 30 days) was 320 × 10⁴ cells/ml, the “Viral antigen-positive cell percentage” value (HIV (LAV 1); 5 mcg/ml, after 30 days) was “≦1%” and the Viable cell count (HIV (LAV 1); 10 mcg/ml, after 4 days) was 180 × 10⁴ cells/ml. For the same compound, the “Viral antigen-positive cell percentage” value (HIV (LAV 1); 10 mcg/ml, after 4 days) was 88%, the Viable cell count (HIV (LAV 1); 10 mcg/ml, after 7 days) was 65 × 10⁴ cells/ml and the “Viral antigen-positive cell percentage” value (HIV (LAV 1); 10 mcg/ml, after 7 days) was 57%. The Viable cell count (HIV (LAV 1); 10 mcg/ml, after 10 days) was 250 × 10⁴ cells/ml, the “Viral antigen-positive cell percentage” value (HIV (LAV 1); 10 mcg/ml, after 10 days) was 27% and the Viable cell count (HIV (LAV 1); 10 mcg/ml, after 20 days) was 300 × 10⁴ cells/ml. For the same compound, the “Viral antigen-positive cell percentage” value (HIV (LAV 1); 10 mcg/ml, after 20 days) was 10%, the Viable cell count (HIV (LAV 1); 10 mcg/ml, after 30 days) was 330 × 10⁴ cells/ml and the “Viral antigen-positive cell percentage” value (HIV (LAV 1); 10 mcg/ml, after 30 days) was “≦1%”. The cytotoxicity (CEM cells) was “no cytotoxicity”.
With `CCn1cc(C(=O)O)c(=O)c2cc(F)c(N3CCNCC3)nc21` [ENX, 1-ethyl-6-fluoro-1,4-dihydro-4-oxo-7-(1-piperazinyl)-1,8-naphthyridine-3-carboxylic acid sesqui-hydrate] the Viable cell count (HIV (LAV 1); 1 mcg/ml, after 4 days) was 220 × 10⁴ cells/ml, the “Viral antigen-positive cell percentage” value (HIV (LAV 1); 1 mcg/ml, after 4 days) was 88% and the Viable cell count (HIV (LAV 1); 1 mcg/ml, after 7 days) was 64 × 10⁴ cells/ml. The “Viral antigen-positive cell percentage” value (HIV (LAV 1); 1 mcg/ml, after 7 days) was 70%, the Viable cell count (HIV (LAV 1); 1 mcg/ml, after 10 days) was 29 × 10⁴ cells/ml and the Viable cell count (HIV (LAV 1); 1 mcg/ml, after 20 days) was 7 × 10⁴ cells/ml. For the same compound, the Viable cell count (HIV (LAV 1); 1 mcg/ml, after 30 days) was 0 × 10⁴ cells/ml, the Viable cell count (HIV (LAV 1); 2.5 mcg/ml, after 4 days) was 240 × 10⁴ cells/ml and the “Viral antigen-positive cell percentage” value (HIV (LAV 1); 2.5 mcg/ml, after 4 days) was 90%. For the same compound, the Viable cell count (HIV (LAV 1); 2.5 mcg/ml, after 7 days) was 67 × 10⁴ cells/ml, the “Viral antigen-positive cell percentage” value (HIV (LAV 1); 2.5 mcg/ml, after 7 days) was 65% and the Viable cell count (HIV (LAV 1); 2.5 mcg/ml, after 10 days) was 30 × 10⁴ cells/ml. The Viable cell count (HIV (LAV 1); 2.5 mcg/ml, after 20 days) was 1 × 10⁴ cells/ml, the Viable cell count (HIV (LAV 1); 2.5 mcg/ml, after 30 days) was 2 × 10⁴ cells/ml and the Viable cell count (HIV (LAV 1); 5 mcg/ml, after 4 days) was 210 × 10⁴ cells/ml. The “Viral antigen-positive cell percentage” value (HIV (LAV 1); 5 mcg/ml, after 4 days) was 93%, the Viable cell count (HIV (LAV 1); 5 mcg/ml, after 7 days) was 58 × 10⁴ cells/ml and the “Viral antigen-positive cell percentage” value (HIV (LAV 1); 5 mcg/ml, after 7 days) was 68%. For the same compound, the Viable cell count (HIV (LAV 1); 5 mcg/ml, after 10 days) was 78 × 10⁴ cells/ml, the Viable cell count (HIV (LAV 1); 5 mcg/ml, after 20 days) was 11 × 10⁴ cells/ml and the Viable cell count (HIV (LAV 1); 5 mcg/ml, after 30 days) was 310 × 10⁴ cells/ml. For the same compound, the “Viral antigen-positive cell percentage” value (HIV (LAV 1); 5 mcg/ml, after 30 days) was “≦1%”, the Viable cell count (HIV (LAV 1); 10 mcg/ml, after 4 days) was 140 × 10⁴ cells/ml and the “Viral antigen-positive cell percentage” value (HIV (LAV 1); 10 mcg/ml, after 4 days) was 88%. The Viable cell count (HIV (LAV 1); 10 mcg/ml, after 7 days) was 52 × 10⁴ cells/ml, the “Viral antigen-positive cell percentage” value (HIV (LAV 1); 10 mcg/ml, after 7 days) was 68% and the Viable cell count (HIV (LAV 1); 10 mcg/ml, after 10 days) was 150 × 10⁴ cells/ml. The “Viral antigen-positive cell percentage” value (HIV (LAV 1); 10 mcg/ml, after 10 days) was 30%, the Viable cell count (HIV (LAV 1); 10 mcg/ml, after 20 days) was 178 × 10⁴ cells/ml and the “Viral antigen-positive cell percentage” value (HIV (LAV 1); 10 mcg/ml, after 20 days) was 5%. The Viable cell count (HIV (LAV 1); 10 mcg/ml, after 30 days) was 379 × 10⁴ cells/ml, the “Viral antigen-positive cell percentage” value (HIV (LAV 1); 10 mcg/ml, after 30 days) was “≦1%” and the viability at 1 µg/mL (HIV (LAV 1); [1]) was 95%. It also gave a viability at 2.5 µg/mL (HIV (LAV 1); [1]) of 95%, a viability at 5 µg/mL (HIV (LAV 1); [1]) of 98% and a viability at 10 µg/mL (HIV (LAV 1); [1]) of 97%. The cytotoxicity (CEM cells) was “no cytotoxicity” and the LD50 (in vivo) was at least 4000 mg/kg.

From patent publication EP0394553A2, “Use of fluorine containing pyridone carboxylic acid derivatives for preparing a medicament for the treatment of HIV infections” (DAIICHI PHARMACEUTICAL CO., LTD., priority 1989, dated 1990)
